The values below come from paper PMC6790676, “Increase in lysophosphatidate acyltransferase activity in oilseed rape (Brassica napus) increases seed triacylglycerol content despite its low intrinsic flux control coefficient” (The New Phytologist, 2019).

This assay concerns T1, LPAAT (lysophosphatidate acyltransferase, microsomal preparations).
T1 construct: gene LPAT2; native microsomes from 27 DAF embryos; several endogenous ER isoenzymes
The assay can be described thus: […]-PA formation, TLC; bi-substrate rate equation fit. It counts as biochemical. The settings on record: 50 mM Tris pH 7.5, 1 mg/ml BSA, 30°C, 10 min, embryo microsomes, line not told.

As usually defined, the Km is the concentration of substrate that gives half-maximal velocity. Consider `CCCCCCCC/C=C\CCCCCCCC(=O)SCCNC(=O)CCNC(=O)[C@H](O)C(C)(C)COP(=O)(O)OP(=O)(O)OC[C@H]1O[C@@H](n2cnc3c(N)ncnc32)[C@H](O)[C@@H]1OP(=O)(O)O` [oleoyl-CoA], for which the Km (co-substrate LPA at high concentration, labelled compound (1-14C-oleoyl-CoA)) was found to be 103 µM.
Regarding `CCCCCCCC/C=C\CCCCCCCC(=O)OC[C@@H](O)COP(=O)(O)O` [LPA], where the note is “co-substrate 1-14C-oleoyl-CoA at high concentration”, the Km came to 15.2 µM.
